Measured values taken from patent US8008324B2, “Indole derivatives and their use as medicament” (AEterna Zentaris GmbH, priority 2000, dated 2011).

Columns and labels:
[1] = system: human cervical carcinoma cell line KB/HeLa (ATCC CCL17); assay: XTT proliferation test, KB/HeLa; type: cell-based; details: eight substance concentrations
Method: (§1) In a proliferation test, the antiproliferative activity of the substance D-69429 was examined using established tumor cell lines. In the test used, the cellular dehydrogenation activity is determined, which makes it possible to determine the vitality of the cell and, indirectly, the cell count. The cell lines used are the human cervical carcinoma cell line KB/HeLa (ATCC CCL17), the murine lymphocyte a leukaemia L1210 (ATCC CCL-219), the human breast adenocarcinoma line MCF7 (ATCC HTB22) and the ovary adenocarcinoma line SKOV-3 (ATCC HTB77). These are established cell lines which are very well characterized and were obtained from ATCC and cultured.
(§2) The adherently growing tumor cell lines HeLa/KB, SKOV-3 and MCF7 and the L1210 leukaemia line, which grows in suspension, were cultivated under standard conditions in an incubator with gas inlet at 37° C., 5% CO2 and 95% atmospheric humidity. […]
(§3) For the XTT assay, 1 mg/ml of XTT (sodium 3′-[1-(phenylaminocarbonyl)-3,4-tetrazolium]-bis(4-methoxy-6-nitro)benzenesulfonic acid) is dissolved in RPMI-1640 medium without Phenol Red. […] The cell plates are then incubated in the incubator with gas inlet for a further 3 h, and the optical density (OD490nm) is determined in a photometer.
(§4) Using the OD490nm obtained, the inhibition in percent relative to the control is calculated. […]

[2] = system: ovary adenocarcinoma line SKOV-3 (ATCC HTB77); assay: XTT proliferation test, SKOV-3; type: cell-based, human; details: SKOV-3, eight substance concentrations
Method: as §1, §2, §3, §4

[3] = system: human breast adenocarcinoma line MCF7 (ATCC HTB22); assay: XTT proliferation test, MCF7; type: cell-based
Method: as §1, §2, §3, §4

[4] = system: murine lymphocyte leukaemia L1210 (ATCC CCL-219); assay: XTT proliferation test, L1210; type: cell-based; details: L-1210, eight substance concentrations
Method: as §1, §2, §3, §4

Question: With Cc1ccc2cc(NC(=O)C(=O)c3cn(Cc4ccc(Cl)cc4)c4ccccc34)ccc2n1 [Example D-69429, N-(2-methyl-6-quinolyl)-[1-(4-chlorobenzyl)indole-3-yl]glyoxylamide] as the compound, how does the antiproliferative action [1] read?
Answer: highly potent antiproliferative action

Question: And the melting point?
Answer: 182 to 185 °C

Question: And the antiproliferative action [2]?
Answer: highly potent antiproliferative action

Question: What about the inhibition at 3.16 µg/mL ([3]; MCF7, at 3.16 μg/ml, test period 48 h) of the same compound?
Answer: 18%

Question: And the IC50 ([3]; MCF7, test period 48 h, regression analysis, read-out: antiproliferative activity (stated as >3.16))?
Answer: > 3.16 µg/mL

Question: And the antiproliferative action [4]?
Answer: highly potent antiproliferative action
